In patent US7098206B2, “Pharmaceutically active morpholinol” (SmithKline Beecham Corporation, priority 1998, dated 2006):
pIC50: −log10 of the molar value. Read-outs that look alike come from different tables or passages of the source.

Legend:
[1] = target: T1, dopamine uptake, synaptosomes from rat caudoputamen (Rattus norvegicus, UniProt P23977); assay: In vitro synaptosomal [3H]-dopamine uptake; type: biochemical; conditions: for pIC50: rat caudoputamen synaptosomes
T1 construct: Synaptosomes for use in obtaining in vitro uptake data were prepared from hypothalamus or striatum by gently homogenizing the tissue; from tissue; host or cells: rat caudoputamen (striatum) synaptosomes
T1 sequence (P23977 whole entry): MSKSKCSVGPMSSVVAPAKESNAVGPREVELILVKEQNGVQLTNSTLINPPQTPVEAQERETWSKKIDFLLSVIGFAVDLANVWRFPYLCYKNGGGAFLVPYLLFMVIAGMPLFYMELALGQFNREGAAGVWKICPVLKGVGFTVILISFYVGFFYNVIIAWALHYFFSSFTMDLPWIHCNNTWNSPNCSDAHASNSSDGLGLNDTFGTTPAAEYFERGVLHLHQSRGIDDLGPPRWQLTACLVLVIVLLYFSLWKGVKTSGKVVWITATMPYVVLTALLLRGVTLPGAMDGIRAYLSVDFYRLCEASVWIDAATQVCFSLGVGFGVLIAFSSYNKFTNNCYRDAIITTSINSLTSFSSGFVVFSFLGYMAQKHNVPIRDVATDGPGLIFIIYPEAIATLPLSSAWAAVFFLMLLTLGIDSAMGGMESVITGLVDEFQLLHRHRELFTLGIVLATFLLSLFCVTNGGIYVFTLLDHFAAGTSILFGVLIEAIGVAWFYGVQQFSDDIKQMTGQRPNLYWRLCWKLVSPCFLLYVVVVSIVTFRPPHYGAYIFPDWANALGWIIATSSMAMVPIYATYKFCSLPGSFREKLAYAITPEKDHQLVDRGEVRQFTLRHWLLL
Description: (§1) Similarities and differences. Molecular Pharmacology, 21: p.

[2] = target: T2, noradrenaline (NA) uptake, synaptosomes from rat hypothalamus (Rattus norvegicus, UniProt Q63380); assay: In vitro synaptosomal [3H]-noradrenaline uptake; type: biochemical; conditions: for pIC50: rat hypothalamus synaptosomes
T2 construct: Synaptosomes for use in obtaining in vitro uptake data were prepared from hypothalamus or striatum by gently homogenizing the tissue; from tissue; host or cells: rat hypothalamus synaptosomes
T2 sequence (Q63380 1-617): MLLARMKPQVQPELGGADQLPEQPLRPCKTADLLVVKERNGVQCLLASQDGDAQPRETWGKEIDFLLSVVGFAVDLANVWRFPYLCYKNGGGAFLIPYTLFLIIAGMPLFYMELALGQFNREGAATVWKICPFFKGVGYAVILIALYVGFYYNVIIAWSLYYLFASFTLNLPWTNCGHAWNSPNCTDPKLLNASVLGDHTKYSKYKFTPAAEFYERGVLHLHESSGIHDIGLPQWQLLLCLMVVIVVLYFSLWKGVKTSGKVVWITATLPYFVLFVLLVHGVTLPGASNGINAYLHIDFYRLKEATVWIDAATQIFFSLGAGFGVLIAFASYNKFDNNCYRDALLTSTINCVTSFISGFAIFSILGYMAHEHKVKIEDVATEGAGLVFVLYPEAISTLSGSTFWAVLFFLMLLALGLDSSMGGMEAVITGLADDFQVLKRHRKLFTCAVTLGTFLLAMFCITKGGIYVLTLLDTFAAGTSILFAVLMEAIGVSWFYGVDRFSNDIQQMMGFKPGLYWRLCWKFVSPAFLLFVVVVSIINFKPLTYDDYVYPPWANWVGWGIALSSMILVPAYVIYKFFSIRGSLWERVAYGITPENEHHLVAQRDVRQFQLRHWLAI
Description: as §1

[3] = test system: TBZ-induced behavioural depression; assay: Tetrabenazine-induced behavioural depression; type: in vivo, Male, CD-1 Mice; conditions: for effect on tetrabenazine-induced behavioural depression: 25 mg/kg (ip), FIG. 1; for dose-effect against TBZ-induced depression: 30 minutes prior to TBZ, n=6, FIGS. 2 and 3
Experimental: FIG. 2. Dose Response of Compound of Formula I Against TBZ-Induced Depression (Compounds administered 30 minutes prior to TBZ, Male, CD-1 Mice, i.p., n=6).
FIG. 3. Dose Response of Compound of Formula II Against TBZ-Induced Depression (Compounds administered 30 minutes prior to TBZ, Male, CD-1 Mice, i.p., n=6).
Tetrabenazine(TBZ)-induced behavioural depression was used as an in vivo measure of antidepressant activity. The test has been validated with a wide range of antidepressants, known to act through noradrenergic mechanisms (Cooper B. R. et al, “Animal models used in the prediction of antidepressant effects in man”, J. Clin. Psychiatry 44: 63–66, 1983). Moreover, the test was also used to identify Wellbutrin® as an anti-depressant. Briefly, animals were injected with the candidate agent (p.o. or i.p.) 30 minutes before receiving an i.p. injection of tetrabenazine (35 mg/kg, as the HCl salt—prepared fresh for each use). Assessments were performed 30 minutes thereafter and included: locomotor activity (1–4 scale); ptosis (1–4 scale) and body temperature as described previously (Cooper, B. R., J. L. Howard, and F. E. Soroko, Animal models used in prediction of antidepressant effects in man (Journal of Clinical Psychiatry, 44: p. 63–6, 1983). In all studies, the scientist performing the assessments was blind to the treatments. All parameters were weighted equally to give a “lumped” score (X) through the following algorithm: X=(1+Ptosis score)/(Activity score*[Temp,treated/Temp,control]

[4] = Dose-ranging safety study: serious adverse events (seizures and deaths); type: in vivo; conditions: for seizures observed, in words: 100 mg/kg p.o.
Experimental: Additional dose-ranging studies were performed to determine the range of safe doses for the isomers and the racemate. […]

[5] = test system: MPTP-induced Parkinsonian marmosets; assay: MPTP-treatment Parkinson's disease model; type: in vivo; conditions: hydrochloride salt, once weekly by oral gavage, MPTP-treated marmosets
Experimental: Locomotor deficits and motor disability were induced in marmosets by the administration of MPTP 2 mg/kg sc on five consecutive days. After the acute effects of MPTP administration had been overcome, bradykinesia, rigidity and loss of vocalisation remained. The compound of formula (I) (as its hydrochloride salt) was administered once weekly by oral gavage, freshly dissolved in 10% sucrose solution with dosages calculated as the free base. […] Assessment of motor disablities was by an observer through a one-way mirror: alertness, checking movements, posture, balance/co-ordination, reaction, vocalisation and motility were each scored. A score of zero indicated a “normally” behaing animal, while a maximum total score of 18 in the monitoring period indicated a severely disabled animal.

[6] = test system: CCI-induced decrease in mechanical paw withdrawal threshold; assay: Chronic constriction injury model of mononeuropathy; type: in vivo, male Random Hooded rats; conditions: CCI rats, FIG. 6
Description: Mononeuropathy was reproduced in male Random Hooded rats (180–250 g) using the Chronic Constriction Injury (CCI) model as described by Bennett and Xie (1988). Under Isoflurane anaesthesia, the common left sciatic nerve of the rats was exposed at mid thigh level. Four ligatures of Chromic gut (4.0) were tied loosely around the nerve with a 1 mm spacing between each. The wound was then closed and secured with suture staples. The surgical procedure was identical for the sham operated animals except the sciatic nerve was not ligated. The animals were allowed a period of 12 days to recover from the surgery before any behavioural testing began.
The effect of the compound of formula (I) (administered as the hydrochloride salt at 20 mgkg^−1 t.i.d. p.o. chronically for a period of 7 days) on CCI-induced decrease in mechanical paw withdrawal threshold was measured using an algesymeter (Randall & Selitto, 1957).

[7] = test system: sexual behaviour of male mice; assay: Mouse sexual behaviour model; type: in vivo, mice (C57BL/6 inbred strain); conditions: hydrochloride salt
Experimental: Male (10 weeks old) and female (8 weeks old) mice (C57BL/6 inbred strain, Charles River, Como (Italy) that had no reproductive or copulatory experience were used in the study. Females were brought into behavioral oestrus with s.c. injections of 0.03 mg estradiol benzoate approximately 48 hr before testing and 0.1 mg progesterone, in sesame oil, 4 hr before testing.
The compound of formula (I) (as its hydrochloride salt) was dissolved in saline to provide a solution for intraperitoneal injection at a dose of 3 mg/kg, with a dose volume of 10 ml/kg. Dosing was performed one hour prior to the test.
Tests were conducted in Perspex arenas, 30 cm in diameter and 50 cm high, which were placed in the cage in which males had been placed individually one day prior to test. The sexual behaviour was filmed remotely under red light for 30 min using a video camera and recorder, the test starting immediately after placing a female mouse into the male's cage. Behavior parameters recorded were (i) the extent of male/female interaction, (ii) the extent of genital sniffing, and (iii) the mount frequency (the number of male mounts).

[8] = target: T3, serotonin uptake, synaptosomes from rat hypothalamus (Rattus norvegicus, UniProt P31652); conditions: at 30 mM (so in the source)
T3 sequence (P31652 whole entry): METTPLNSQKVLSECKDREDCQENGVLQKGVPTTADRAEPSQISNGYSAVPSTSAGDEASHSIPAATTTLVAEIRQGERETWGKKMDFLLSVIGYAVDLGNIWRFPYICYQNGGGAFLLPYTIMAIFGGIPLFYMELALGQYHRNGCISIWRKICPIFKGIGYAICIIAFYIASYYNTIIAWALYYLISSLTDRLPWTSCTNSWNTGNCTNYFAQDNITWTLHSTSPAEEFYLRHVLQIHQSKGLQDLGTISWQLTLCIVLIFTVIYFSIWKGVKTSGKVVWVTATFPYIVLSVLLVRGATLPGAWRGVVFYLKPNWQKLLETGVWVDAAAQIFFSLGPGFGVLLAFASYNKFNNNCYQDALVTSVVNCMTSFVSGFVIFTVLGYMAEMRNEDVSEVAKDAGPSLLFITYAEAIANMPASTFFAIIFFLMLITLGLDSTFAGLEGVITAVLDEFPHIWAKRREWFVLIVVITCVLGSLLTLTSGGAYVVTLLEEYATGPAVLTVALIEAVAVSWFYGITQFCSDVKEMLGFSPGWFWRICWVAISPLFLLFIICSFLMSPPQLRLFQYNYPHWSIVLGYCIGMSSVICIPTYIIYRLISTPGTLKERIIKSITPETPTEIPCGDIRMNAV
Experimental: (§2) In vitro uptake was determined, as reported previously, using synaptosomes prepared from rat caudoputamen (for dopamine uptake) and hypothalamus (for NA and serotonin uptake) using [^3H]-dopamine, [^3H]-NA and [^3H]-serotonin as transport substrates, respectively.
(§3) Synaptosomes for use in obtaining in vitro uptake data were prepared from hypothalamus or striatum by gently homogenizing the tissue in a 0.3 M sucrose/25 mM Tris pH 7.4 buffer containing iproniazid phosphate to inhibit monoamine oxidase. The homogenate was centrifuged at 1100×g at 4° C. for 10 min and the supernatant was used for uptake studies. […] Under these conditions uptake was linear with respect to both for substrate and tissue (with <5% total substrate transported). Non-specific uptake was defined as uptake at 0° C. [^3H]-substrate, which had been transported into synaptosomes, was separated from free [^3H]-substrate by filtration over GF/B filters and washing with cold Krebs-Henseleit buffer. The filters were counted for tritum in a liquid scintillation spectrometer.

[9] = target: T3, serotonin uptake, synaptosomes from rat hypothalamus; assay: biochemical
Experimental: as §2, §3

[10] = read-out: IC50, [3H]-Dopamine Uptake
[11] = 3 mg/kg intraperitoneal, one hour prior to 30 min test
[12] = intraperitoneal injection, versus control

| Structure (SMILES) | pIC50 [1, 10] | pIC50 [2] | effect on tetrabenazine-induced behavioural depression [3] | seizures observed, in words [4] | % Died ([4]; i.p., 100 mg/kg) [%] | Seizures (%) ([4]; i.p., 100 mg/kg) | Time to Death ([4]; i.p., 100 mg/kg) [min] | Time to Seizures ([4]; i.p., 100 mg/kg) [min] | % Died ([4]; i.p., 300 mg/kg) [%] | Seizures (%) ([4]; i.p., 300 mg/kg) | Time to Death ([4]; i.p., 300 mg/kg) [min] | Time to Seizures ([4]; i.p., 300 mg/kg) [min] | % Died ([4]; p.o., 100 mg/kg) [%] | Seizures (%) ([4]; p.o., 100 mg/kg) | Time to Seizures ([4]; p.o., 100 mg/kg) [min] | % Died ([4]; p.o., 300 mg/kg) [%] | Seizures (%) ([4]; p.o., 300 mg/kg) | Time to Death ([4]; p.o., 300 mg/kg) [min] | Time to Seizures ([4]; p.o., 300 mg/kg) [min] | dose-effect against TBZ-induced depression ([3]; i.p.) | also measured |
| --- | --- | --- | --- | --- | --- | --- | --- | --- | --- | --- | --- | --- | --- | --- | --- | --- | --- | --- | --- | --- | --- |
| CC(NC(C)(C)C)C(=O)c1cccc(Cl)c1.Cl (racemic) [Bupropion, (±)-1-(3-chlorophenyl)-2-[(1,1-dimethylethyl)amino]-1-propanone hydrochloride] | 5.72 | 5.66 | abolished the tetrabenazine-induced behavioural depression | – | – | – | – | – | – | – | – | – | – | – | – | – | – | – | – | – | – |
| CC1NC(C)(C)COC1(O)c1cccc(Cl)c1.Cl (racemic) [Racemate, (+/−)-(2R*,3R*)-2-(3-chlorophenyl)-3,5,5-trimethyl-2-morpholinol] | – | – | – | seizures were observed | 20 | 100 | 14 | 3 | 100 | 100 | 3 | 3 | 0 | 100 | 9.2 | 80 | 100 | 7 | 6.8 | – | – |
| C[C@@H]1NC(C)(C)CO[C@@]1(O)c1cccc(Cl)c1 (single isomer, unassigned) [Formula (I)] | 5.03 | – | abolished the tetrabenazine-induced behavioural depression | – | 0 | 100 | – | 3.93 | 100 | 100 | 6 | 3.95 | 0 | 0 | – | 0 | 100 | – | 11.23 | sharp increase in activity between 3 mg/kg and 6 mg/kg | pIC50 ([1]; IC50, [3H]-Dopamine Uptake): ~5.00; potency as inhibitor of dopamine uptake, fold less potent ([1]; unlike Wellbutrin, comparison as worded): approximately 10 fold; potency as NA inhibitor relative to Wellbutrin ([2]; versus Wellbutrin): approximately twice as potent; locomotor deficits ([5]; FIG. 4): reversed the locomotor deficits; motor disability ([5]; FIG. 5): reversed; mechanical paw withdrawal threshold on cessation of treatment ([6]; after 20 mgkg−1 t.i.d. p.o. for 7 days): falling back towards CCI-operated vehicle-treated levels; mechanical paw withdrawal threshold during chronic dosing ([6]; hydrochloride salt, 20 mgkg−1 t.i.d. p.o. for 7 days): reversal was maintained throughout the chronic dosing period; mechanical paw withdrawal threshold after a single dose ([6]; hydrochloride salt, single dose 20 mgkg−1 p.o.): immediate reversal of the fall in paw withdrawal threshold back towards sham operated levels; M/F interaction [7, 11]: *228.8 ± 30.3 sec; Mount frequency, No. of events ± SEM [7, 11]: 6.6 ± 1.7; Time spent in genital sniffing [7, 11]: *203.6 ± 30.1 sec; genital sniffing, change in words [7, 12]: statistically significant (unpaired t-test) increase; male/female interaction, change in words [7, 12]: statistically significant (unpaired t-test) increase; mount frequency, change in words [7, 12]: trend towards increasing mount frequency; % Died ([4]; i.p., 100 mg/kg, listed as compound of formula I): No deaths were observed; % Died ([4]; p.o., 300 mg/kg, listed as compound of formula I): no deaths were observed; inhibition of serotonin uptake at a fixed concentration [8]: Neither compound inhibited serotonin uptake; pIC50 [9]: < 4.52 |
| C[C@H]1NC(C)(C)CO[C@]1(O)c1cccc(Cl)c1 (single isomer, unassigned) [Formula (II)] | < 4.00 | < 4.52 | only modest activity | seizures were observed | 100 | 20 | 7 | 5 | 100 | 100 | 6 | 1.1 | 0 | 100 | 7.2 | 100 | 100 | 7 | 6.8 | did not possess dose-related activity | inhibition of dopamine (DA) uptake at a fixed concentration ([1]; at 30 μM): inactive; inhibition of noradrenaline (NA) uptake at a fixed concentration ([2]; at a concentration of 30 μM): ineffective; effect on TBZ-induced depression at the top dose ([3]; 50 mg/kg, i.p., FIG. 3): appeared to worsen the animal's condition; inhibition of serotonin uptake at a fixed concentration [8]: Neither compound inhibited serotonin uptake; pIC50 [9]: < 4.00 |
| CC1NC(C)(C)COC1(O)c1cccc(Cl)c1 (stereo not drawn) [Racemate, (+/−)-(2R*,3R*)-2-(3-chlorophenyl)-3,5,5-trimethyl-2-morpholinol] | – | – | abolished the tetrabenazine-induced behavioural depression | – | – | – | – | – | – | – | – | – | – | – | – | – | – | – | – | – | – |
| CN(C)CCC=C1c2ccccc2CCc2ccccc21 [amitryptyline] | – | – | abolished the tetrabenazine-induced behavioural depression | – | – | – | – | – | – | – | – | – | – | – | – | – | – | – | – | – | – |
